Experiment [1] relates to MCF-7-MKP3 cells. Description: Anchorage-independent soft agar colony formation, MKP3-overexpressing MCF-7 transfectants. The format is cell-based, human. Conditions: MKP3-transfected cells; 100 nM OHT plus 10 nM ICI or 20 nM. Here is the method:
MCF-7 cells were originally obtained from Dr. Benita Katzenellebogen, but have been maintained in the inventors' laboratory for over 10 years (Fuqua et al., 2000). MCF-7 cells were maintained in Minimal Essential Medium (MEM, InVitrogen) supplemented with 5% fetal bovine serum (Summit Biotechnology, Fort Collins, Colo.), 200 U/ml penicillin, and 200 μg/ml streptomycin. Cells were incubated at 37° C. in 5% CO2. To generate MCF-7 cells stably overexpressing MKP3, 5 μg of the plasmid pcDNA3-MKP3-V5 (Furukawa et al., 2003) or empty vector (pcDNA3-His-V5, InVitrogen), were transfected into the cells using Fugene 6 reagent Roche Clinical Laboratories, Indianapolis, Ind.) in 100 mm tissue culture dishes following the manufacturer's protocol. Stable clones overexpressing MKP3 were selected as described (Fuqua et al., 2000), and positive clones were identified using immunoblot analysis with an anti-V5 antibody (1:5000 dilution)
(§1) Cells were starved for 2 days in PRF MEM (InVitrogen) supplemented with 5% fetal bovine serum (FBS, Summit Biotechnology, Fort Collins, Colo.), 6 ng/ml insulin, 200 units/ml penicillin, and 200 μg/ml streptomycin. Soft agar assays were performed in sixwell plates. Into each well, 1.5 ml of prewarmed (50° C.) 0.7% SeaPlaque agarose (FMC, Rockland, Me.) was added and dissolved in PRF MEM supplemented with 5% charcoal stripped FBS (Summit, Fort Collins, Colo.) to serve as the bottom layer, and allowed to solidify at 4° C. until to use. 0.5×10^4 cells as a single cell suspension were suspended in prewarmed (37° C.) of the same media, 4 ml of 0.5% SeaPlaque agarose was then added, and this suspension then plated as the top layer by adding it dropwise to the solidified bottom layer plates. Plates were cooled for 2 hours, and then transferred to a 37° C. humidified incubator. Two days after plating, media containing control vehicle, 1 nM estradiol, 100 nM 4-OH-Tam, 100 nM OHT plus 10 nM ICI, or 100 nM OHT plus 20 nM […] was added to the top cell layer, and the appropriate media was replaced every two days. After 14 days, the colonies were fixed, and the colony number of colonies >50 cells from quadruplicate assays were then counted. The data shown is the mean colony number of four plates, and is representative of two independent experiments.
(§2) In pancreatic cells, ectopic expression of MKP3 is reported to result in a suppression of cell growth (Fuqua et al., 2003). Thus, the growth characteristics of the MCF-7 stable MKP3 transfectants under different hormonal conditions were investigated using anchorageindependent soft agar assay (FIG. 4B).

Experiment [2] has as its system TR breast cancer. Particulars: second-line therapy; cited from earlier work.
For experiment [3], the system named is MCF-7 vector control cells. Kind of experiment: Anchorage-independent soft agar colony formation, MCF-7 vector control cells. Conditions: vector control cells; 100 nM OHT plus 10 nM ICI or 20 nM PD98065. It counts as cell-based, human. The procedure:
as §1, §2

Experiment [4] has as its system JNK. Description: Immunoblot of phospho-JNK in MCF-7 transfectants. It counts as cell-based, human. Conditions: vector control cells treated with the inhibitor. Here is the method: (§3) Cells grown in 100 mm dishes were starved in phenol red-free (PRF), serum-free MEM (Specialty Media, Phillipsburg, N.J.) for 48 hours, and were then treated for 2 hours with vehicle (ethanol), estrogen (100 nM, 20), or OHT (100 nM). After treatment, cells were rinsed twice with ice-cold phosphate-buffered saline (PBS) and were then lysed immediately with 200 μl of cell lysis buffer (20 mM Tris HCl, pH 7.4, 150 mM NaCl, 1 mM B-glycerophosphate, 1 mM sodium orthovanadate, and 10% glycerol plus 1:100 proteinase inhibitor cocktail III) (Calbiochem, LaJolla, Calif.) per 100 mm tissue culture. The cell lysates were cleared by centrifugation at 16,100×g for 10 minutes at 4° C. Protein concentration was determined with the BCA Protein Assay kit (Pierce, Rockfold, Ill.) according to the manufacturer's directions. Equal amount of cell extracts were resolved under denaturing conditions by electrophoresis in 8-10% polyacrylamide gels containing sodium dodecyl sulfate (SDS-PAGE), and transferred to nitrocellulose membranes by electroblotting (Schleicher & Schuell, Keene, NH). […]
(Immunoblotting shows a protein as a band on a membrane.)

For experiment [5], the system named is ERα. Description: Immunoblot of phospho-S118 ERα and total ERα in MCF-7 transfectants. The format is cell-based, human. Particulars: control and Tam-treated MKP3.2 cells. Here is the method: (§4) Cells grown in 100 mm dishes were starved in phenol red-free (PRF), serum-free MEM (Specialty Media, Phillipsburg, N.J.) for 48 hours, and were then treated for 2 hours with vehicle (ethanol), estrogen (100 nM, 20), or OHT (100 nM). After treatment, cells were rinsed twice with ice-cold phosphate-buffered saline (PBS) and were then lysed immediately with 200 μl of cell lysis buffer (20 mM Tris HCl, pH 7.4, 150 mM NaCl, 1 mM B-glycerophosphate, 1 mM sodium orthovanadate, and 10% glycerol plus 1:100 proteinase inhibitor cocktail III) (Calbiochem, LaJolla, Calif.) per 100 mm tissue culture. The cell lysates were cleared by centrifugation at 16,100×g for 10 minutes at 4° C. Protein concentration was determined with the BCA Protein Assay kit (Pierce, Rockfold, Ill.) according to the manufacturer's directions. Equal amount of cell extracts were resolved under denaturing conditions by electrophoresis in 8-10% polyacrylamide gels containing sodium dodecyl sulfate (SDS-PAGE), and transferred to nitrocellulose membranes by electroblotting (Schleicher & Schuell, Keene, NH). After blocking of the transferred nitrocellulose membrane with TBST (20 mM Tris pH 7.6, 150 mM NaCl, 0.1% Tween-20) supplemented with 5% non-fat milk for 1 hour at room temperature, the membrane was incubated with primary antibodies either for 1 hour at room temperature (anti-ERα, 1:100 dilution; anti-AIB1, 1:100 dilution; anti-ERK2, 1:500 dilution; anti-Cyclin D1,1:500 dilution; anti-PR, C-19, 1:200 dilution; anti-p190, 1:1000 dilution; anti-V5, 1:5000 dilution), or overnight at 4° C. (anti-phospho MAPK, 1:1000 dilution; anti-phosphor-Ser118-ERα; 1:1000 dilution; MAPK p42/44, 1:1000 dilution), incubated with secondary antibodies for 1 hour at room temperature and then developed with Enhanced Chemiluminescence Reagents (Amersham Pharmacia Biotech, Piscataway, N.J.).

For experiment [6], the system named is progesterone receptor (PR) A and B forms. Kind of experiment: Immunoblot of PR-A and PR-B in MCF-7 transfectants. It counts as cell-based, human. Particulars: MKP3 overexpressing cells. The procedure: as §4
(§5) As expected with two hours of estrogen treatment, no induction of the two PR isoforms were detected in either the control vector (Con 1 and 2), or in the MKP3-transfected cells (FIG. 11A). […]

For experiment [7], the system named is ERK 1,2 MAPK. Kind of experiment: Immunoblot of phospho-MAPK in MCF-7 transfectants. It counts as cell-based, human. The procedure:
as §4
MAPK activity is tightly regulated by phosphorylation and dephosphorylation. MKP3 participates in a bidirectional regulatory loop with ERK2 MAPK, whereby ERK2 substrate binding is associated with catalytic activation of MKP3, and activated MKP3 negatively regulates pERK2 (Camps et al., 1998). […] Immunoblot analysis with anti-V5 was used to detect ectopic MKP3 expression in the two MKP3 transfectants (FIG. 5A, top panel). FIGS. 5B and 5C provide quantitation of results in FIG. 5A.

Experiment [8] deals with cyclin D1 (CCND1). Kind of experiment: Immunoblot of CCND1 in MCF-7 transfectants. It counts as cell-based, human. Conditions: MKP3 overexpressing cells. The procedure: as §3, §5
Experiment [9] relates to breast cancer. Particulars: cited from earlier work.

Where two headings read alike, the source gives them in different places.

Results on 3 compounds are retold here after patent US20070059720A9 (priority 2004, published 2007).

For `C[C@]12CC[C@@H]3c4ccc(O)cc4C[C@@H](CCCCCCCCC[S+]([O-])CCCC(F)(F)C(F)(F)F)[C@H]3[C@@H]1CC[C@@H]2O` (stereo partly shown) [ICI182,780], the “effect on Tam-induced colony formation” value in experiment [1] and in experiment [3] was “completely blocked” throughout. The “share of TR breast cancer patients who respond” value in experiment [2] is given as “About two-thirds”.

Take `COc1cccc(-c2cc(=O)c3ccccc3o2)c1N` [PD98059]: the “effect on Tam-induced colony formation” value in experiment [1] and in experiment [3] was “completely blocked” each time. In experiment [4], the pJNK level entry is listed as “elevated”. Besides, in experiment [5], the “effect on the increase in pS118 ERα” value is “effectively inhibited”. For the same compound, in experiment [6], the “effect on PR-B levels in Tam-treated cells” value was “restored”. The “effect on the increase in pMAPK” value in [7] (control and Tam-treated MKP3.2 cells) was “effectively inhibited”. In addition, the “effect on activation of MAPK” value in experiment [7] (vector control cells, all treatment conditions) is “blocked activation of MAPK”. Besides, the “effect on tamoxifen induction of CCND1” value in [8] was “blocked”.

With `CC(C)(C#N)c1cc(Cn2cncn2)cc(C(C)(C)C#N)c1` [anastrazole], the “benefit compared to tamoxifen” value was “modest advantage” in experiment [9] (ER+/PR+ group) and “major benefit” in experiment [9] (ER+/PR− subgroup).
